Test results: patent US20230128730A1, “OXYGEN IMPERMEABLE PORPHYRIN PHOTOSENSITIZER FILM COMPOSITION FOR APPLICATION TO PLANTS” (SUNCOR ENERGY INC., priority 2020, published 2023)

Experiments:
[1] = Method B: photostability in solution (liquid state) under LED light; assay type: physicochemical
Experimental: Fifty microlitres of each formulation was pipetted into 12 wells of a 96-well clear-bottom black microplate (Thomas Scientific, Swedesboro, N.J.), followed by the addition of 50 μL dH2O. The sample was sealed with a microplate clear adhesive film to minimize water evaporation. At the beginning of experiment, the microplate was placed under a Heliospectra RX30 LED light array (Heliospectra, San […], Calif.). The LED array was adjusted such that the microplates received on average 1300 μmol/m^2/s of light intensity. […] The % photosensitizer remaining after irradiation was calculated using the following equation: [formula] where Abst is the absorbance peak of the sample receiving t hours of light exposure; Abs0 is the absorbance peak of the sample receiving no light exposure. All data is expressed as mean±standard deviation.

[2] = Method A: photostability in a non-hydrated state (solid state), dried films under LED light; assay type: physicochemical
Experimental: Fifty microlitres of each formulation was pipetted into 12 wells of a 96-well clear-bottom black microplate (Thomas Scientific, Swedesboro, N.J.) and dried into thin films using a dehydrator (Gourmia GFD1680) at a temperature of 45° C. for 3 h. At the beginning of the experiment, the microplate was placed under a Heliospectra RX30 LED light array (Heliospectra, San […], Calif.). The LED array was adjusted such that the microplates received on average 1300 μmol/m^2/s of light intensity. The microplate was tightly covered with aluminum foil and at select intervals peeled back to irradiate films with either 0 h, 24 h, 48 h or 72 h of light. […] An absorbance spectral scan was conducted on the microplate (350-750 nm) using a plate reader (Spectramax M2E, Molecular Devices, San Jose, Calif.) and the peak intensity was monitored at 24 h, 48 h and/or 72 h timepoints and compared with the corresponding 0 h timepoint to determine the degree of photodegradation. The % photosensitizer remaining after irradiation was calculated using the following equation: [formula] where Abst is the absorbance peak of the sample receiving t hours of light exposure; Abs0 is the absorbance peak of the sample receiving no light exposure. All data is expressed as mean±standard deviation.

[3] = test system: Colletotrichum orbiculare ATC20767 (Cgm); assay: Control of Colletotrichum orbiculare on Nicotiana benthamiana, film-forming formulations applied 48 h before inoculation; assay type: in vivo; conditions: host Nicotiana benthamiana, PVOH 89 kDa, >99% hydrolysis
Experimental: Control of the fungal plant pathogen Colletotrichum orbiculare ATC20767 (Cgm) on the host plant Nicotiana benthamiana following treatment with formulations containing Magnesium chlorophyllin, sodium salt with hydrogel polymer, polyvinylalcohol 89 kDa (99%+hydrolysis) and phenolic antioxidant vanillin were assessed. Treatments were applied to N. benthamiana plants approximately 48 h prior to inoculation to simulate photodegradation on a leaf surface. Subsequently, with a spore suspension of Cgm was applied to the leaves. Plants were then exposed to light for a 24-hour period followed by dark incubation until disease symptoms were evident on the water-treated control plants. Once disease symptoms were evident, lesions were counted, and leaf area measured in order to determine the number of lesions/cm^2 leaf area. Four replicate plants were used per treatment and plants were randomized under the light source. […]
Control of the fungal plant pathogen Colletotrichum orbiculare ATC20767 (Cgm) on the host plant Nicotiana benthamiana following treatment with formulations containing Magnesium chlorophyllin, sodium salt with hydrogel polymer, polyvinylalcohol 89 kDa (99%+hydrolysis) and phenolic antioxidant tannic acid were assessed. […] Once disease symptoms were evident, lesions were counted, and leaf area measured in order to determine the number of lesions/cm^2 leaf area. […]

[4] = test system: Pseudomonas syringae v. tabacii; assay: Inhibition of P. syringae in host plant N. benthamiana by film-forming compositions; assay type: in vivo; conditions: host Nicotiana benthamiana, PVOH 89 kDa, >99% hydrolysis
Experimental: Two days prior to inoculation, chemical treatments were applied to N. benthamiana plants at the 5-6 leaf stage until run off using a handheld spray bottle delivering a fine spray. Plants sprayed with water were used for Control. Immediately after treatment, plants were randomly placed on a shelf and exposed to LED lights emitting approximately 450 μmol/m2/s photo-synthetically active radiation (PAR) for a 12 h light/12 h dark photoperiod. For inoculation, Pst from a glycerol stock was cultured on Tryptic Soy Agar (TSA) and incubated overnight at 30° C. Bacterial cells were collected from the overnight culture, suspended in de-ionized water and diluted to 1×10^8 CFU/ml followed by the addition of 0.02% (v/v) Silwet L-77. Inoculum was then applied to plants until runoff and the plants covered with transparent plastic domes to maintain 100% relative humidity.
Inoculated plants were randomly placed on a shelf in the Growth room which was maintained at 24° C., and were exposed to a combination of fluorescent and LED lights emitting approximately 250 μmol/m^2/s PAR for an 16 h light/8 h dark photoperiod for 7 days. Entire plants were assessed for disease severity using rating scale of 0-100%. Disease symptoms included yellow lesions, discoloration on foliage, leaf deformation and stunted growth. Four replications per treatment were used in the experiment.

[5] = Thermal stability of MgChln, 2 weeks at 54° C.; assay type: physicochemical; conditions: in dH2O, wrapped in aluminum foil, mean ± SD
Experimental: These samples were wrapped in aluminum foil and stored in a 54° C. oven for a period of 2 weeks. After the 2-week period, the samples were taken out of the 54° C. oven or -20° C. freezer and assayed using the UV-Visible plate reader (Spectramax M2E, Molecular Devices, San Jose, Calif.) with 12 technical replicates per sample. The degradation of […] as a result of storage at elevated temperature was determined by calculating the % photosensitizer remaining using the following equation: [formula] where Abst is the absorbance peak of the sample after incubation for 2 weeks at 54° C.; Abs0 is the absorbance peak of the sample at the start of experiment without being stored at 54° C. All data is expressed as mean±standard deviation.

[6] = test system: Kentucky bluegrass (Poa pratensis); assay: Kentucky bluegrass tolerance to salt stress (turf quality); assay type: in vivo; conditions: 170 mM NaCl, 2 salt applications; scale of 1-9 (1=dead, 9=healthy); untreated control 5
Experimental: Kentucky bluegrass (Poa pratensis) was grown under greenhouse conditions for ˜3 weeks. After 3 weeks, plants were sprayed with formulations and allowed to sit for 24 hours, after which the pots were placed in a 170 mM NaCl solution until the soil was saturated. The salt application was repeated again 7 days later for a total of 2 salt applications. Salinity stress was evaluated based on a turf quality scale of 1-9; where 1=dead, brown turf; 6=minimally acceptable turf quality (based on standards for golf courses or sports fields); and 9=dense, dark green turf (healthy). Data are average of 5 replicates.

[7] = test system: Sclerotinia homoeocarpa; assay: Agar protocol: control of dollar spot fungus with modified Ce6; assay type: cell-based; conditions: Agar data, 10 uM
Experimental: Agar protocol: control of dollar spot fungus (Sclerotinia homoeocarpa) with modified Ce6 was assessed. Treatments were amended into Potato Dextrose Agar (PDA) at desired concentrations. Then, a 5 mm diameter plug of a Sclerotinia homoeocarpa isolate (3 isolates total tested) was inoculated into the center of the amended Petri-dish and incubated at 21° C. in the dark for 24 hours. After 24 hours, one set of Petri-dishes (in triplicate) was left in the dark and one set was placed under illumination for the remainder of the experiment (all at 21° C.). Radial growth of the fungus was monitored daily until the growth of S. homoeocarpa on non-amended PDA reaches the edge of the Petri-dish. Illumination was provided by fluorescent lights emitting about 180 μmol/m2/s photosynthetically active radiation (PAR).

[8] = test system: Sclerotinia homoeocarpa; assay: Broth protocol: control of dollar spot fungus with modified chlorins; assay type: cell-based; conditions: Broth data; for Inhibition, % (Light): light 1 hour, about 1000 μmol/m2/s PAR
Experimental: Broth protocol: control of dollar spot fungus (Sclerotinia homoeocarpa) with modified chlorins was assessed. Treatments were prepared in Phosphate Buffered Saline (PBS) in 24 well plates (in duplicates for light vs. dark incubation) at desired concentrations. Then, a 5 mm diameter plug of a Sclerotinia homoeocarpa isolate (3 isolates total tested) was inoculated into the PBS and incubated at 21° C. in the dark for 2 hours. After 2 hours, one of the 24 well plates (with isolates in triplicate) was left in the dark and one 24 well plate was placed under illumination for 1 hour (all at 21° C.). Following illumination, fungal plugs were removed from PBS, blotted dry on sterile filter paper and transferred to non-amended Potato Dextrose Agar (PDA). Radial growth of the fungus was monitored daily until the growth of S. homoeocarpa reached the edge of the Petri-dish. Illumination was provided by LED lights emitting about 1000 μmol/m2/s photosynthetically active radiation (PAR).

[9] = test system: Pseudomonas syringae pv. tabaci; assay: In vitro photodynamic inactivation of Pseudomonas syringae pv. tabaci with modified Ce6; assay type: cell-based
Experimental: Experiments were conducted to evaluate control of the gram-negative bacterial plant pathogen Pseudomonas syringae pv. tabaci with modified Ce6. Treatments were prepared in Phosphate Buffered Saline (PBS) in 96 well plates at desired concentrations. A bacterial suspension was inoculated into the PBS and incubated at 28° C. in the dark for 30 min. After 30 min, the 96 well plate was placed under illumination for 1 hour (at 21° C.). A separate plate prepared at the same time was kept in the dark without illumination and served as dark control. Following illumination, bacterial suspensions were serially diluted and 10 μL of each dilution was spread uniformly on Tryptic Soy Agar (TSA) plates and placed in the dark in an incubator at 28° C. for 48 hours. After 48 hours, bacterial colonies were counted and results were log transformed (log colony forming units (CFU)/mL). The relative inactivation was determined by taking the difference between log CFU(PBS control) and log CFU (treatments). Sample Illumination was provided by LED lights (Heliospectra RX30) emitting about 1000 μmol/m^2/s photosynthetically active radiation (PAR).

[10] = test system: Pseudomonas syringae pv. tabaci; assay: In vitro effect of PP IX and modified PP IX on Pseudomonas syringae pv. tabaci, with and without chelating agent; assay type: cell-based; conditions: 10 μM; illumination 1 hour, about 1000 μmol/m^2/s PAR; PBS control 8.7
Experimental: In this example, control of the gram-negative bacterial plant pathogen Pseudomonas syringae pv. tabaci with PP IX and modified PP IX was assessed, with and without chelating agents. Treatments were prepared in Phosphate Buffered Saline (PBS) in 96 well plates at desired concentrations. A bacterial suspension was inoculated into the PBS and incubated at 28° C. in the dark for 30 minutes. After 30 minutes, the 96 well plate was placed under illumination for 1 hour (at 21° C.). Following illumination, bacterial suspensions were serially diluted and 10 μL of each dilution is spread uniformly on Tryptic Soy Agar (TSA) plates and placed in the dark in an incubator at 28° C. for 48 hours. After 48 hours, bacterial colonies were counted, and the results were log transformed (log colony forming units (CFU)/mL). The relative inactivation was determined by taking the difference between log CFU(PBS control) and log CFU(treatments). Sample Illumination was provided by LED lights (Heliospectra RX30) emitting about 1000 μmol/m^2/s photosynthetically active radiation (PAR).

C=CC1=C(C)C2=CC3=NC(=C(CC(=O)[O-])C4=NC(=C(C)C4=C([O-])[O-])C=c4[n-]c(c(C)c4CC)=CC1=N2)C(CCC(=O)[O-])C3C.[H+].[H+].[H+].[Mg+2] (stereo not shown) [MgChln, Magnesium chlorin e6]
% photosensitizer remaining at 6 h (liquid state) ([1]; MgChln, PVOH 89 kDa, >99% hydrolysis, tannic acid, adjuvants, 6 h simulated light): 31.5 ± 5.3% | % photosensitizer remaining at 6 h (liquid state) ([1]; MgChln, PVOH 89 kDa, >99% hydrolysis, various antioxidants, 6 h simulated light): 20.6 ± 3.9% | % photosensitizer remaining at 6 h (liquid state) ([1]; MgChln, PVOH 146 kDa, >99% hydrolysis, 6 h simulated sunlight, mean ± SD): 35.2 ± 2.1% | % photosensitizer remaining at 6 h (liquid state) ([1]; MgChln, PVOH of varied molecular weight and degree of hydrolysis, 6 h simulated sunlight, mean ± SD): 44.6 ± 9.6% | % photosensitizer remaining at 6 h (liquid state) ([1]; MgChln, various film-forming polymers and tannic acid, 6 h): 27.5 ± 1.8% | % photosensitizer remaining at 72 h (solid state) ([2]; MgChln, PVOH 89 kDa, >99% hydrolysis, tannic acid, adjuvants, 72 h simulated sunlight): 41.2 ± 2.9% | % photosensitizer remaining at 72 h (solid state) ([2]; MgChln, PVOH 89 kDa, >99% hydrolysis, various antioxidants, 72 h simulated sunlight): 31.6 ± 2.3% | % photosensitizer remaining at 72 h (solid state) ([2]; MgChln, PVOH 89 kDa, >99% hydrolysis, dried film, 72 h light irradiation, mean ± SD): 46.0 ± 1.8% | % photosensitizer remaining at 72 h (solid state) ([2]; MgChln, PVOH 146 kDa, >99% hydrolysis, 72 h simulated sunlight, mean ± SD): 29.1 ± 2% | % photosensitizer remaining at 72 h (solid state) ([2]; MgChln, PVOH of varied molecular weight and degree of hydrolysis, 72 h simulated sunlight, mean ± SD): 45.2 ± 7.1% | % photosensitizer remaining at 72 h (solid state) ([2]; MgChln, various film-forming polymers and tannic acid, 72 h simulated sunlight): 42.4 ± 2.5% | % inhibition ([3]; applied about 48 h prior to inoculation): 76% | % Disease inhibition ([3]; sprayed films irradiated 48 h prior to inoculation with fungal spores): 95.1% | % Disease inhibition ([4]; relative to water control): 45.3% | Disease severity, % Mean ([4]; sprayed two days prior to inoculation, rated 7 days after, scale 0-100%, control 80): 43.8% | % Photosensitizer remaining [5]: 62 ± 7%

Chlorin e6, trisodium salt [Ce6Na3, reference compound]
% photosensitizer remaining at 6 h (liquid state) ([1]; various tetrapyrroles, PVOH 89 kDa, >99% hydrolysis and tannic acid, 6 h simulated light): 19.4 ± 0.5% | Turf Quality [6]: 6 | % photosensitizer remaining at 72 h (solid state) ([2]; various tetrapyrroles, PVOH 89 kDa, >99% hydrolysis and tannic acid, 72 h simulated sunlight): 84.2 ± 7^ % | Inhibition, % (Dark) ([7]; dark): 26% | Inhibition, % (Light) ([7]; light about 180 μmol/m2/s PAR): 74% | Inhibition, % (Dark) ([8]; 10 uM): −4% | Inhibition, % (Light) ([8]; 10 uM): 53% | Inhibition, % (Dark) ([8]; 100 uM): 16% | Inhibition, % (Light) ([8]; 100 uM): 66% | Relative Inactivation (log[CFUcontrol mL^−1] − log[CFUtreatment mL^−1]), Dark ([9]; dark control plate): −0.03 ± 0.13 log CFU mL^−1 | Relative Inactivation (log[CFUcontrol mL^−1] − log[CFUtreatment mL^−1]), Light ([9]; illumination 1 hour, about 1000 μmol/m^2/s PAR, where no colonies remained value set to 1 CFU/mL): 0.39 ± 0.29 log CFU mL^−1

Protoporphyrin IX disodium salt [PP IX disodium salt]
log CFU/ml [10]: 7.4 log CFU/ml
